# According to the METLIN SMRT retention time set (Domingo-Almenara et al. 2019):
# Assay: gradient 5% acetonitrile 3 min, to 50% in 2 min, to 85% in 15 min, held 3 min, 100 µL/min
# Details: column: Zorbax Extend-C18 2.1 x 50 mm; eluents: water / acetonitrile, 0.1% formic acid
# Outline: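 Data were gathered over 3 months by HPLC coupled to a quadrupole time-of-flight mass spectrometer, operated in positive and negative ionization mode. Mixtures of ~100 pure standards ran on a Zorbax Extend-C18 column (2.1 × 50 mm, 1.8 μm) at 100 μL/min, with water and acetonitrile each containing 0.1% formic acid and dead and dwell volumes of 40 μL and 900 μL. Retention time was read from adduct peaks picked by computer and checked manually.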
row,Structure (SMILES),RP-LC retention time [s]
1,O=C(CSc1ncc(CO)n1Cc1ccc(F)cc1)N1CCCc2ccccc21,702
2,OC(CN1CCNCC1)Cn1c2ccc(Br)cc2c2cc(Br)ccc21 (configuration not stated),732
3,CCOC(=O)CNC(=O)NCc1cccn1Cc1cccc(C)c1,834
4,O=C(NCCCN1CCCC1)c1cc2n(n1)CCCN(Cc1ccc(F)cc1)C2=O,619
5,Cc1ccc(Nc2c(-c3ccc(C)cc3)nc3ccc(Br)cn23)cc1,849
6,COC(=O)c1cccc(NC(=O)NC2CCCN2S(=O)(=O)c2ccc(Cl)cc2)c1 (configuration not stated),821
7,CSc1nnc(-c2nn(C)c3c2CN(C(=O)c2ccc(Br)cc2)CC3)n1C,753
8,O=C(c1cccnc1)N1CC(n2cc(COCC3CC3)nn2)C1,597
9,CCCC(=O)Nc1ccc2nc(N3CCN(CC(=O)N4CCCCCC4)CC3)cc(C(=O)O)c2c1,587
10,O=S(=O)(c1ccccc1)N1CCCC(c2nc(CCOCC3CC3)no2)C1 (configuration not stated),924
11,Cc1ccc(NC(=O)CSc2ccc(N3CCCC(C(=O)NC4CC4)C3)nn2)c(Cl)c1 (configuration not stated),705
12,O=C(Cc1csc(NC(=O)C2CCCC2)n1)Nc1nc(-c2cccnc2)cs1,600
13,CCC1CCCCN1CCCNC(=O)C1CCCN(c2nccnc2Sc2ccccc2)C1 (configuration not stated),714
14,Cc1cc(COC(=O)c2cc3ccccc3o2)no1,866
15,O=C(OCc1cc(-c2cccs2)on1)c1ccc(Cn2ccnc2)cc1,600
16,CCOc1ccc(-c2ccc(OCCNS(=O)(=O)c3ccccc3Cl)nn2)cc1,891
17,Cc1c(Cl)cccc1NC(=O)CCCn1cccc1,868
18,Cc1ccc(NC(=O)Cn2nc(N3CCCCCC3)c3ccccc3c2=O)cc1F,1170
19,Cc1ccc(-c2noc(-c3cccc(S(=O)(=O)NCCN4CCC(C)CC4)c3)n2)cc1,831
20,Cc1cc(=O)oc2cc(OS(C)(=O)=O)ccc12,782
21,O=C(NCCOc1ccccc1)C(=O)c1c[nH]c2ccccc12,886
22,CCC1(CC=C2CCCCC2)C(=O)NC(=O)NC1=O,863
23,Cc1sc(-c2cc(C(F)(F)F)on2)cc1S(=O)(=O)Nc1cccc(Cl)c1,1180

row,Structure (SMILES),RP-LC retention time [s]
1,CCCc1nc(C(C)(C)O)c(C(=O)OCc2oc(=O)oc2C)n1Cc1ccc(-c2ccccc2-c2nn[nH]n2)cc1,832
2,Cc1cc(F)ccc1NC(=O)C1CCN(S(=O)(=O)c2cc(C(=O)N3CCOCC3)cs2)CC1,759
3,COc1cccc(NC(=O)N2CCCC2c2nc(-c3ccccc3OC)no2)c1 (configuration not stated),843
4,O=C(COc1ccccc1Cl)Nc1cncc(-c2nc3ccccc3o2)c1,995
5,COc1ccc(C)cc1NC(=O)C1CCc2nc(N3CCOCC3)ncc2C1 (configuration not stated),832
6,O=C(NCc1ccc(F)cc1)c1ccc2ncnc(N3CCCC3)c2c1,646
7,CCOc1ccc(CN(Cc2cc(=O)n3cc(Cl)ccc3n2)CC(C)C)cc1,734
8,Cc1ccc(CNS(=O)(=O)c2cc3c4c(c2)CCC(=O)N4CCC3)cc1,868
9,Cc1ccc2c(c1)N(Cc1ccccc1C)N=C(C(=O)N1CCCCC1)S2(=O)=O,1040
10,CCC1Oc2ccc(C)cc2N(CC(=O)NCCCN2CC(C)CC(C)C2)C1=O (configuration not stated),708
11,COC(=O)c1sc(-c2ccccc2)cc1NC(=O)c1ccc([N+](=O)[O-])s1,1370
12,Cn1c(=O)n([C@H]2CCN(S(=O)(=O)c3ccc(F)cc3)C2)c2ncccc21,805
13,CCOC(=O)c1cccc(NC(=O)CCc2ccc3nc(CC)[nH]c3c2)c1,638
14,O=C(Nc1ccc2cn[nH]c2c1)c1ccc(=O)[nH]n1,567
15,CCOc1ccc(NC(=O)NCC(c2cccnc2)c2cn(CC)c3ccccc23)cc1 (configuration not stated),751
16,COc1ccc(C2CCCN2C(=O)c2ccn(C)n2)cc1 (configuration not stated),730
17,Cc1ccc(NC(=O)Cn2c(=O)nc(N3CCC(C)CC3)c3ccccc32)cc1C,909
18,Cc1cc(C)cc(NS(=O)(=O)c2cn(CC(C)C)c3ncccc23)c1,763
19,COc1cccc(-c2noc(Cn3ccnc3C)n2)c1,624
20,CCc1cccc(NC(=O)CN2C(=O)NC3(CCCCC3)C2=O)c1,805
21,CCc1ccc(N2C(=O)C3N=NN(Cc4nc(-c5cccc(Br)c5)no4)C3C2=O)cc1 (configuration not stated),1120
22,O=C(c1cccs1)N1CCC(n2c(C3CCCC3)nc3cccnc32)C1 (configuration not stated),653
23,Cc1cccc(-c2nc(Cn3nnc(C(=O)NCc4cccc(Br)c4)c3C)c(C)o2)c1,1210

row,Structure (SMILES),RP-LC retention time [s]
1,O=C(NCC1(CO)CC1)NC(c1ccccc1)c1ccccc1,706
2,O=C(COc1ccc(-c2cnc3ccccc3n2)cc1)Nc1ccccn1,852
3,COc1cc2c(cc1OC)C(C(=O)NCCN1CCOCC1)C(c1cccs1)N(C)C2=O (configuration not stated),604
4,COC(=O)C1C(=O)C2=C(CC1C)NC(C)=C(C(=O)OC(C)C)C2c1cccc(F)c1 (configuration not stated),951
5,CC(C)c1c(C2CCN(C(=O)c3cccc(Br)c3)CC2)noc1N,834
6,Cc1ccc2cc(CCC(=O)NCCN3CCCCC3)c(=O)[nH]c2c1,601
7,CCOc1cc(=O)n2c(c1C(=O)NCc1ccc3c(c1)OCO3)CCCC2,707
8,CC(C)(C)c1ccc(S(=O)(=O)N2CCC3(CC2)NCCN=C3NCc2ccccc2)cc1,854
9,COC(=O)N1CCN(CCNC(=O)NCCCc2ccccc2)CC1,559
10,Cc1ccc(CNC(=O)c2cc(-c3ccncc3)cn2C)cc1C,672
11,O=C(CCS(=O)(=O)c1ccccc1)NCc1cc(-c2ccccc2F)on1,742
12,CSc1ccccc1C(=O)N(Cc1ccsc1)CC(F)(F)F,987
13,O=C(O)c1cc2cccc([N+](=O)[O-])c2[nH]1,746
14,CN(C)C(=O)c1cc2c(s1)CCC(C(=O)NCc1ccccc1)C2 (configuration not stated),628
15,Cc1ccc2c(c1)C1CC(C)(O2)N(c2cccc(C(=O)N3CCN(c4ccccn4)CC3)c2)C(=O)N1 (configuration not stated),625
16,Cc1[nH]c(C)c(S(=O)(=O)N2CCC(C(=O)N3CCc4ccccc43)CC2)c1C(=O)N1CCCCC1,778
17,Cc1ccccc1Nc1c(-c2cccc(N(C)C)c2)nc2ccc(Br)cn12,847
18,O=C1NCCOCCCN(C(=O)Nc2ccccc2)[C@H]2CCC[C@@H]12,741
19,COc1ccc(-c2ncc3c(n2)CCN(C(=O)Nc2ccccc2OC)C3)cc1,905
20,Cc1ccc(CN2C(=O)COc3ccc(C(=O)NCc4ccc5c(c4)OCO5)cc32)cc1,921
21,CCc1ccc(NC(=O)N2CCCC(C)(C(=O)NCc3ccc(C)cc3)C2)cc1 (configuration not stated),1040
